Here are results for 24 compounds from patent US20240400507A1, “Substituted Indole Compounds and the Use Thereof” (TROBIO THERAPEUTICS PTY LTD, priority 2021, published 2024).

“Also recorded” adds a separate entry of the source.

For assay [1], the target named is T1, Tpm4.2-containing actin microfilaments (Mus musculus, UniProt Q6IRU2).
T1 construct: investigated in primary mouse embryonic fibroblast (PMEF) cells; endogenous in cells; host or cells: primary mouse embryonic fibroblast (PMEF) cells
As to the kind of experiment: Disruption of Tpm4.2-containing actin microfilaments in PMEF cells, images assessed visually. The note with it: for Filament Disruption (minimum test concentration at which filament disruption was observed): primary mouse embryonic fibroblast (PMEF) cells, 24 hours treatment, anti-tropomyosin antibody staining of Tpm4.2. The class given is cell-based. As to the method:
Example 2—Anti-tropomyosin activity of compounds of formula (I) The ability of compounds of the disclosure to disrupt Tpm4.2-containing actin microfilaments was investigated in primary mouse embryonic fibroblast (PMEF) cells. Cells were seeded at 3×10^4 cells per well in a volume of 1000 μL complete media onto a 12 well plate containing 13 mm coverslips and left to plate down for 24 hours prior to treatment. Cells were then treated with DMSO and two concentrations of the test compounds. 24 hours post-treatment, cells were fixed with 16% paraformaldehyde (PBS) and stained with rabbit polyclonal anti-tropomyosin 6/9d antibody to visualise Tpm4.2. Single plane images were obtained using the Olympus IX83 epi-fluorescence microscope. Ten fields of view were collected for both Tpm4.2 fluorophore and 488-Atto-Phalloidin with each treatment condition. The images were assessed visually to determine if the Tpm4.2 filament network had been disrupted under the treatment condition (Table 1).

In assay [2] the target is T1, Tpm4.2-containing actin microfilaments. The assay is described as above. The class given is cell-based. The conditions noted are these: PMEF cells stably expressing Tpm4.2 labelled with the NeonGreen fluorophore (footnote a).

T1 sequence (Q6IRU2 whole entry): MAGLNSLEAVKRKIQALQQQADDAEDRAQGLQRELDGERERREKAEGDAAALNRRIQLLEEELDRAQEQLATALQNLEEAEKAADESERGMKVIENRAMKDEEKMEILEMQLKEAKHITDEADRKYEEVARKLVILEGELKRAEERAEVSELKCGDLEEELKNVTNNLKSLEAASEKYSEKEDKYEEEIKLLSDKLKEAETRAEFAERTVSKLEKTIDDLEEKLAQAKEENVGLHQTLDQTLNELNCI

Consider `COc1ccc(CCOc2ccc3ccn(CCNC(C)(CO)CO)c3c2)cc1` [Compound 21, 2-methyl-2-((2-(6-(4-methoxyphenethoxy)-1H-indol-1-yl)ethyl)amino)propane-1,3-diol], for which the “Filament Disruption (minimum test concentration at which filament disruption was observed)” value (“Filament Disruption” for short) in assay [1] is 2.5 µM.
Still for that read-out and setting: the result for `CC(CO)(CO)NCCn1ccc2ccc(C(=O)NCc3ccc(F)cc3)cc21` [Compound 14, 1-(2-((1,3-dihydroxy-2-methylpropan-2-yl)amino)ethyl)-N-(4-fluorobenzyl)-1H-indole-6-carboxamide] reads 2.0 µM; that for `OCC(CO)NCCn1ccc2ccc(OCCc3ccc(F)cc3)cc21` [Compound 6, 2-((2-(6-(4-fluorophenethoxy)-1H-indol-1-yl)ethyl)amino)propane-1,3-diol], 4.0 µM.
Regarding `COc1ccccc1CCOc1ccc2ccn(CCNC(C)(CO)CO)c2c1` [Compound 19, 2-methyl-2-((2-(6-(2-methoxyphenethoxy)-1H-indol-1-yl)ethyl)amino)propane-1,3-diol], the “Filament Disruption” value in assay [1] is 7.0 µM.
For `CC(CO)(CO)NCCn1ccc2ccc(OCCc3ccc(F)cc3)cc21` [Compound 4, 2-((2-(6-(4-fluorophenethoxy)-1H-indol-1-yl)ethyl)amino)-2-methylpropane-1,3-diol], in assay [2], the “Filament Disruption” value was 3.0^a μM.
In the case of `Cc1ccccc1CCOc1ccc2ccn(CCNC(C)(CO)CO)c2c1` [Compound 16, 2-methyl-2-((2-(6-(2-methylphenethoxy)-1H-indol-1-yl)ethyl)amino)propane-1,3-diol], in assay [1], the “Filament Disruption” value worked out at 7.5 µM.
Take `Cc1ccc(CCOc2ccc3ccn(CCNC(C)(CO)CO)c3c2)cc1` [Compound 18, 2-methyl-2-((2-(6-(4-methylphenethoxy)-1H-indol-1-yl)ethyl)amino)propane-1,3-diol]: the “Filament Disruption” value in assay [1] was determined as 5.0 µM.
On to `OCCNCCn1ccc2ccc(OCCc3ccc(F)cc3)cc21` [Compound 9, 2-((2-(6-(4-fluorophenethoxy)-1H-indol-1-yl)ethyl)amino)ethan-1-ol], for which the “Filament Disruption” value in assay [1] came out at 4.0 µM.
On the same count and under the same terms, the result for `C[C@H](CO)NCCn1ccc2ccc(OCCc3ccc(F)cc3)cc21` [Compound 8, (R)-2-((2-(6-(4-fluorophenethoxy)-1H-indol-1-yl)ethyl)amino)propan-1-ol] reads 2.0 µM.
For the compound `CC(C)(C)NCCn1ccc2ccc(OCCc3ccc(F)cc3)cc21` [Compound 10, N-(2-(6-(4-fluorophenethoxy)-1H-indol-1-yl)ethyl)-2-methylpropan-2-amine], the “Filament Disruption” value in assay [1] came out at 2.0 µM.
On the same count and under the same terms, in the case of `Cc1cccc(CCOc2ccc3ccn(CCNC(C)(CO)CO)c3c2)c1` [Compound 17, 2-methyl-2-((2-(6-(3-methylphenethoxy)-1H-indol-1-yl)ethyl)amino)propane-1,3-diol] it was 2.0 µM; in that of `Fc1ccc(CCOc2ccc3ccn(CCCN4CCOCC4)c3c2)cc1` [Compound 11, 4-(3-(6-(4-fluorophenethoxy)-1H-indol-1-yl)propyl)morpholine], 20 µM.
In the case of `CC(CO)(CO)NCCn1ccc2ccc(NCCc3ccc(F)cc3)cc21` [Compound 13, 2-((2-(6-((4-fluorophenethyl)amino)-1H-indol-1-yl)ethyl)amino)-2-methylpropane-1,3-diol], the “Effect on Tpm4.2 filament network in representative image (FIG. 1)” value in assay [1] (PMEF cells, treatment versus control condition) is “parallel filament bundles observed in the control condition are lost and punctate aggregations of Tpm4.2 are observed near the nucleus; also recorded: disruption of the Tpm4.2 filament network”. Further, the “Filament Disruption” value in assay [1] turned out to be 2.0 µM.
On to `CC(CO)(CO)NCCn1ccc2ccc(OCCc3ccc(F)c(F)c3)cc21` [Compound 24, 2-methyl-2-((2-(6-(3,4-difluorophenethoxy)-1H-indol-1-yl)ethyl)amino)propane-1,3-diol], for which the “Filament Disruption” value in assay [1] was 2.5 µM.
The same measure, in the same setting: in the case of `COCC(C)(COC)NCCn1ccc2ccc(OCCc3ccc(F)cc3)cc21` [Compound 12, N-(2-(6-(4-fluorophenethoxy)-1H-indol-1-yl)ethyl)-1,3-dimethoxy-2-methylpropan-2-amine] it was 9.0 µM; in that of `Cc1ccc(CCOc2ccc3ccn(CCNC(C)(CO)CO)c3c2)cc1C` [Compound 25, 2-methyl-2-((2-(6-(3,4-dimethylphenethoxy)-1H-indol-1-yl)ethyl)amino)propane-1,3-diol], 2.5 µM.
The same measure, in the same setting: the result for `C[C@@H](CO)NCCn1ccc2ccc(OCCc3ccc(F)cc3)cc21` [Compound 7, (S)-2-((2-(6-(4-fluorophenethoxy)-1H-indol-1-yl)ethyl)amino)propan-1-ol] reads 2.0 µM; that for `CC(CO)(CO)NCCn1ccc2ccc(C(=O)OCc3ccc(F)cc3)cc21` [Compound 15, 4-fluorobenzyl 1-(2-((1,3-dihydroxy-2-methylpropan-2-yl)amino)ethyl)-1H-indole-6-carboxylate], 6.5 µM.
As to `CC(CO)(CO)NCCn1ccc2ccc(OCCc3cccc(F)c3)cc21` [Compound 3, 2-((2-(6-(3-fluorophenethoxy)-1H-indol-1-yl)ethyl)amino)-2-methylpropane-1,3-diol], the “Filament Disruption” value in assay [2] is given as 4.0^a μM.
As to `CC(CO)(CO)NCCn1ccc2ccc(OCCc3ccccc3C(F)(F)F)cc21` [Compound 22, 2-methyl-2-((2-(6-(2-(trifluoromethyl)phenethoxy)-1H-indol-1-yl)ethyl)amino)propane-1,3-diol], the “Filament Disruption” value in assay [1] stood at 2.5 µM.
Regarding `CC(CO)(CO)NCCn1ccc2ccc(OCCc3ccccc3F)cc21` [Compound 2, 2-((2-(6-(2-fluorophenethoxy)-1H-indol-1-yl)ethyl)amino)-2-methylpropane-1,3-diol], the “Filament Disruption” value in assay [2] is listed as 4.0^a μM.
Regarding `CC(CO)(CO)NCCn1ccc2ccc(OCCc3ccccc3)cc21` [Compound 1, 2-((2-(6-phenethoxy-1H-indol-1-yI)ethyl)amino)-2-methylpropane-1,3-diol], the “Filament Disruption” value in assay [2] was 4.0^a μM.
For the compound `CC(C)(CO)NCCn1ccc2ccc(OCCc3ccc(F)cc3)cc21` [Compound 5, 2-((2-(6-(4-fluorophenethoxy)-1H-indol-1-yl)ethyl)amino)-2-methylpropan-1-ol], in assay [1], the “Filament Disruption” value worked out at 2.0 µM.
On to `COc1cccc(CCOc2ccc3ccn(CCNC(C)(CO)CO)c3c2)c1` [Compound 20, 2-methyl-2-((2-(6-(3-methoxyphenethoxy)-1H-indol-1-yl)ethyl)amino)propane-1,3-diol], for which the “Filament Disruption” value in assay [1] worked out at 2.0 µM.
